From patent US20240391954A1, “MC4R AGONIST PEPTIDES” (The Regents of the University of Michigan, priority 2021, published 2024)
Positions of bridges follow the written chain, without caps; N, C: chain ends. Non-standard residues stand in square brackets, D forms with d. Residues, ends and D or L forms follow the SMILES beside them. NMeR = CN[C@@H](CCCNC(=N)N)C(=O)O; Cit = NC(=O)NCCC[C@H](N)C(=O)O; NMeA = CN[C@@H](C)C(=O)O; Nle = CCCC[C@H](N)C(=O)O; Orn = NCCC[C@H](N)C(=O)O; Aib = CC(C)(N)C(=O)O

Assays:
Assay type in all cases: cell-based
human MC1R = target: T1, human MC1R (Homo sapiens, UniProt Q01726); test: split-luciferase cAMP sensor assay, agonist mode, hMC1R; conditions: MC4R versus MC1R
T1 construct: expressed in transfected cells; host or cells: HEK-293 cells stably expressing hMC1R and the GScAMP22F cAMP sensor
Procedure, shortened: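 HEK-293 cells stably expressing hMC1R and the GScAMP22F split-luciferase cAMP sensor, preloaded 120 min at 37° C with D-luciferin in serum-free medium. Peptide responses were taken as peak luminescence over 2-13 min minus 2-min baseline, normalized to the α-MSH ECmax. EC50 was obtained from a four-parameter variable-slope fit.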

human MC4R = target: T2, human MC4R (Homo sapiens, UniProt P32245); test: split-luciferase cAMP sensor assay, agonist mode (measurement window 1), hMC4R; conditions: agonist mode; for Emax: read-out: MC4R cAMP % max activation; for EC50: HEK-293 cells stably expressing hMC4R, read-out: MC4R cAMP EC50
T2 construct: host or cells: HEK-293 cells stably expressing the GScAMP22F split-luciferase cAMP sensor and hMC4R, G418 selection
Procedure, shortened: (§1)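 EC50 values come from a four-parameter variable-slope fit of luminescence in measurement window 1, capturing direct peptide effects on receptor-expressing cells with a cAMP22f luciferase sensor. Cells were preloaded with 4% D-luciferin, serum-free medium; 20 μM forskolin normalized for cell number and transducer efficiency.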

human MC3R = target: T3, human MC3R (Homo sapiens, UniProt P41968); test: split-luciferase cAMP sensor assay, agonist mode (measurement window 1), hMC3R; conditions: for Emax: read-out: MC3R cAMP % max activation; for EC50: HEK-293 cells stably expressing hMC3R, read-out: MC3R cAMP EC50; for MC4R selectivity vs MC3R: MC4R versus MC3R
T3 construct: expressed in transfected cells; host or cells: HEK-293 cells stably expressing the GScAMP22F split-luciferase cAMP sensor (parent reporter line from Promega); MC3R clone generated in-house, G418 selection
Procedure, shortened: as §1

[1] = % maximal activation, agonist mode

T2 sequence (P32245 whole entry): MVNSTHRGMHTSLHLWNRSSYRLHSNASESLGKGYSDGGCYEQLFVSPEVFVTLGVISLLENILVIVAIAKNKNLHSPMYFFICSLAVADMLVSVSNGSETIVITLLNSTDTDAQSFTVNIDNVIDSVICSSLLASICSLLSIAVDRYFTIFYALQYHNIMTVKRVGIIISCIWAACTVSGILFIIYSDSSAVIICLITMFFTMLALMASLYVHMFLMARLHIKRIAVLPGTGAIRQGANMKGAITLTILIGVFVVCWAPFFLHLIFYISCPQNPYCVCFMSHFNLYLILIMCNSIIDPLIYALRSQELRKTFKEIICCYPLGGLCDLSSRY
T1 sequence (Q01726 whole entry): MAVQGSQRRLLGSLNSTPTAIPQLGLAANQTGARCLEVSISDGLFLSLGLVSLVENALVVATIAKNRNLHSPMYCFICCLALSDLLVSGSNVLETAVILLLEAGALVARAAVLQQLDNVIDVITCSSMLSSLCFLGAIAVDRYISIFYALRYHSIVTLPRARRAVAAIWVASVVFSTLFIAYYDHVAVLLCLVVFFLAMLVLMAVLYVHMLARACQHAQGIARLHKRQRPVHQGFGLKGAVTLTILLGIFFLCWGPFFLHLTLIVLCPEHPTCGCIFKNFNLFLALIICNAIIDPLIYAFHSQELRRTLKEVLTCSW
T3 sequence (P41968 whole entry): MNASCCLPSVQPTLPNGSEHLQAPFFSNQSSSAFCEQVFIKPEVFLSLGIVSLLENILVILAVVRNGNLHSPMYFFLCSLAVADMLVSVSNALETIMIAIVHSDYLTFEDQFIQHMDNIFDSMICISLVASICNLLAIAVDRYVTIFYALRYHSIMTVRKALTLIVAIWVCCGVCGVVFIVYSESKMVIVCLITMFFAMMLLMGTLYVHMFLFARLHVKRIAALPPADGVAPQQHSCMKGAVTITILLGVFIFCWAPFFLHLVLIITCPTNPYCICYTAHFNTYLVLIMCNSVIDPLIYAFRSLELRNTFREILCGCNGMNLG

Structure (SMILES) | MC4R selectivity vs MC1R (human MC1R) | Emax (human MC4R; % maximal activation) | Emax (human MC3R; [1]) | EC50 (human MC3R; agonist mode) | MC4R selectivity vs MC3R (human MC3R) | EC50 (human MC4R) | MC4R cAMP % max activation (human MC4R; % maximal activation) | MC3R cAMP % max activation (human MC3R; [1])
CC(=O)N[C@@H](CCCNC(=N)N)C(=O)N[C@H]1CSSC[C@@H](C(N)=O)NC(=O)[C@@H](Cc2c[nH]c3ccccc23)NC(=O)[C@H](CCCNC(=N)N)N(C)C(=O)[C@@H](Cc2ccccc2)NC(=O)[C@H](CCCNC(=N)N)NC(=O)[C@@H](C)NC1=O [CTX-1284, Arg-cyclo(Cys-D-Ala-Arg-D-Phe-N-Me-Arg-D-Trp-Cys)] (Ac-RC[dA]R[dF][NMeR][dW]C-NH2; disulfide 2-8) | 0.15 | 91% | 45% | 1040 nM | 8.11 | – | – | –
CC(=O)N[C@@H](CCCNC(=N)N)C(=O)N[C@H]1CSSC[C@@H](C(N)=O)NC(=O)[C@H](Cc2c[nH]c3ccccc23)NC(=O)[C@H](CCCNC(=N)N)NC(=O)[C@@H](Cc2ccccc2)NC(=O)[C@H](CCCNC(N)=O)NC(=O)C(C)(C)NC1=O [CTX-1289, Arg-cyclo(Cys-Aib-Cit-D-Phe-Arg-Trp-Cys)] | 130 | 93% | 21% | – | 30 | – | – | –
C[C@H]1NC(=O)CSC[C@@H](C(N)=O)NC(=O)[C@H](Cc2ccccc2)NC(=O)[C@H](CCCNC(=N)N)NC(=O)[C@@H](Cc2ccccc2)NC(=O)[C@H](CCCNC(N)=O)NC1=O [CTX-1658, Thioether-cyclo(D-Ala-Cit-D-Phe-Arg-Phe-Cys)] ({CH2CO}-[dA][Cit][dF]RFC-NH2; thioether N-6) | Not active | – | – | > 10000 nM | Not active | > 10000 nM | – | –
CC(=O)N[C@H]1CSSC[C@@H](C(N)=O)NC(=O)[C@H](Cc2ccccc2)NC(=O)[C@H](CCCNC(=N)N)NC(=O)[C@@H](Cc2ccccc2)NC(=O)[C@H](CCCNC(=N)N)NC(=O)CNC1=O [CTX-1638, cyclo(Cys-Gly-Arg-D-Phe-Arg-Phe-Cys)] (Ac-CGR[dF]RFC-NH2; disulfide 1-7) | 1.04 | 110% | 75% | – | 1.66 | – | – | –
COc1ccc(C[C@H]2NC(=O)[C@H](CCCNC(N)=O)NC(=O)C(C)(C)NC(=O)[C@@H](NC(=O)[C@H](CCCNC(=N)N)NC(C)=O)CSSC[C@@H](C(N)=O)NC(=O)[C@H](Cc3ccccc3)NC(=O)[C@H](CCCNC(=N)N)NC2=O)cc1 [CTX-1299, Arg-cyclo(Cys-Aib-Cit-D-Tyr(4-OMe)-Arg-Phe-Cys)] (Ac-RC[Aib][Cit][dY](Me)RFC-NH2; disulfide 2-8) | 3.66 | 78% | – | > 10000 nM | >154 | – | – | –
CC(=O)N[C@H]1CSSC[C@@H](C(N)=O)NC(=O)[C@H](Cc2c[nH]c3ccccc23)NC(=O)[C@H](CCCNC(=N)N)NC(=O)[C@@H](Cc2ccccc2)NC(=O)[C@H](CCCNC(N)=O)NC(=O)[C@@H](C)NC1=O [CTX-1628, cyclo(Cys-D-Ala-Cit-D-Phe-Arg-Trp-Cys)] (Ac-C[dA][Cit][dF]RWC-NH2; disulfide 1-7 (inferred)) | 191 | 99% | 45% | – | 6.37 | 14 nM | – | –
N=C(N)NCCC[C@@H]1NC(=O)CNC(=O)CSC[C@@H](C(N)=O)NC(=O)[C@H](Cc2ccccc2)NC(=O)[C@H](CCCNC(=N)N)NC(=O)[C@@H](Cc2ccccc2)NC1=O [CTX-1654, Thioether-cyclo(Gly-Arg-D-Phe-Arg-Phe-Cys)] ({CH2CO}-GR[dF]RFC-NH2; thioether N-6) | 0.62 | 81% | 43% | – | 5.41 | – | – | –
CC(=O)N[C@@H](CCCNC(=N)N)C(=O)N[C@H]1CSSC[C@@H](C(N)=O)NC(=O)[C@@H](Cc2c[nH]c3ccccc23)NC(=O)[C@H](CCCNC(=N)N)NC(=O)[C@@H](Cc2ccccc2)NC(=O)[C@H](CCCNC(=N)N)NC(=O)[C@@H](C)NC1=O [CTX-1263, Arg-cyclo(Cys-D-Ala-Arg-D-Phe-Arg-D-Trp-Cys)] (Ac-RC[dA]R[dF]R[dW]C-NH2; disulfide 2-8) | 1.73 | 93% | 69% | 11 nM | 1.62 | – | – | –
N=C(N)NCCC[C@@H]1NC(=O)[C@@H](Cc2ccccc2)NC(=O)[C@H](Cc2c[nH]cn2)NC(=O)CNC(=O)CSC[C@@H](C(N)=O)NC(=O)[C@H](Cc2c[nH]c3ccccc23)NC1=O [CTX-1644, Thioether-cyclo(Gly-His-D-Phe-Arg-Trp-Cys)] ({CH2CO}-GH[dF]RWC-NH2; thioether N-6) | 4.84 | 111% | 107% | – | 53 | 2.3 nM | – | –
CCCC[C@H](NC(=O)[C@H](CCCNC(=N)N)NC(C)=O)C(=O)N[C@H]1CSSC[C@@H](C(N)=O)NC(=O)[C@H](Cc2c[nH]c3ccccc23)NC(=O)[C@H](CCCNC(=N)N)NC(=O)[C@@H](Cc2ccccc2)NC(=O)[C@H](CCCN)NC1=O [CTX-1617, Arg-Nle-cyclo(Cys-Orn-D-Phe-Arg-Trp-Cys)] (Ac-R[Nle]C[Orn][dF]RWC-NH2; disulfide 3-8) | 1.75 | 102% | 102% | – | 11 | – | – | –
C[C@H]1NC(=O)CSC[C@@H](C(N)=O)NC(=O)[C@H](Cc2ccccc2)NC(=O)[C@H](CCCNC(=N)N)NC(=O)[C@@H](Cc2ccccc2)NC(=O)[C@H](Cc2c[nH]cn2)NC1=O [CTX-1656, Thioether-cyclo(D-Ala-His-D-Phe-Arg-Phe-Cys)] ({CH2CO}-[dA]H[dF]RFC-NH2; thioether N-6) | 1 | 98% | 86% | – | 1.64 | 1400 nM | – | –
CC(=O)N[C@H]1CSSC[C@@H](C(N)=O)NC(=O)[C@H](Cc2ccccc2)NC(=O)[C@H](CCCNC(=N)N)NC(=O)[C@@H](Cc2ccccc2)NC(=O)[C@H](CCCNC(N)=O)NC(=O)CNC1=O [CTX-1639, cyclo(Cys-Gly-Cit-D-Phe-Arg-Phe-Cys)] (Ac-CG[Cit][dF]RFC-NH2; disulfide 1-7 (inferred)) | 8.32 | 88% | 44% | – | 2.82 | – | – | –
C[C@H]1NC(=O)CSC[C@@H](C(N)=O)NC(=O)[C@H](Cc2c[nH]c3ccccc23)NC(=O)[C@H](CCCNC(=N)N)NC(=O)[C@@H](Cc2ccccc2)NC(=O)[C@H](Cc2c[nH]cn2)NC1=O [CTX-1202, Thioether-cyclo((D-Ala-His-D-Phe-Arg-Trp-Cys)] | 0.89 | 104% | 101% | – | 76 | – | – | –
COc1ccc(C[C@H]2NC(=O)[C@H](CCCNC(=N)N)NC(=O)C(C)(C)NC(=O)[C@@H](NC(=O)[C@H](CCCNC(=N)N)NC(C)=O)CSSC[C@@H](C(N)=O)NC(=O)[C@@H](Cc3c[nH]c4ccccc34)NC(=O)[C@H](CCCNC(=N)N)NC2=O)cc1 [CTX-1297, Arg-cyclo(Cys-Aib-Arg-D-Tyr(4-OMe)-Arg-D-Trp-Cys)] (Ac-RC[Aib]R[dY](Me)R[dW]C-NH2; disulfide 2-8 (inferred)) | 0.52 | 97% | – | > 10000 nM | >3,000 | 3.3 nM | – | –
CC(=O)N[C@@H](CCCNC(=N)N)C(=O)N[C@H]1CSSC[C@@H](C(N)=O)NC(=O)[C@@H](Cc2ccccc2)NC(=O)[C@H](CCCNC(=N)N)NC(=O)[C@@H](Cc2ccccc2)NC(=O)[C@H](CCCNC(=N)N)NC(=O)[C@@H](C)NC1=O [CTX-1265, Arg-cyclo(Cys-D-Ala-Arg-D-Phe-Arg-D-Phe-Cys)] (Ac-RC[dA]R[dF]R[dF]C-NH2; disulfide 2-8 (inferred)) | 0.02 | – | – | – | 0.04 | – | (71%) | (60%)
N=C(N)NCCC[C@@H]1NC(=O)[C@@H](Cc2ccccc2)NC(=O)[C@H](Cc2c[nH]cn2)NC(=O)CNC(=O)CSC[C@@H](C(N)=O)NC(=O)[C@H](Cc2ccccc2)NC1=O [CTX-1653, Thioether-cyclo(Gly-His-D-Phe-Arg-Phe-Cys)] ({CH2CO}-GH[dF]RFC-NH2; thioether N-6) | 0.83 | 83% | – | > 10000 nM | >8 | 1230 nM | – | –
CC(=O)N[C@@H](CCCNC(=N)N)C(=O)N[C@H]1CSSC[C@@H](C(N)=O)NC(=O)[C@@H](Cc2c[nH]c3ccccc23)NC(=O)[C@H](CCCNC(=N)N)NC(=O)[C@@H](Cc2ccccc2)NC(=O)[C@H](CCCNC(=N)N)NC(=O)[C@H](C)N(C)C1=O [CTX-1269, Arg-cyclo(Cys-NMe-Ala-Arg-D-Phe-Arg-D-Trp-Cys)] (Ac-RC[NMeA]R[dF]R[dW]C-NH2; disulfide 2-8 (inferred)) | 2.56 | 92% | 39% | – | 9.31 | 13 nM | – | –
CC(=O)N[C@H]1CSSC[C@@H](C(N)=O)NC(=O)[C@H](Cc2ccccc2)NC(=O)[C@H](CCCNC(=N)N)NC(=O)[C@@H](Cc2ccccc2)NC(=O)[C@H](Cc2c[nH]cn2)NC(=O)C(C)(C)NC1=O [CTX-1634, cyclo(Cys-Aib-His-D-Phe-Arg-Phe-Cys)] (Ac-C[Aib]H[dF]RFC-NH2; disulfide 1-7 (inferred)) | 4.02 | 107% | 94% | – | 6.68 | – | – | –
